Source: patent publication US20200178542A9, “CONTROL OF PESTS IN COTTON BY G[…] BILOBALIDES” (priority 2015, published 2020)
Where two headings read alike, the source gives them in different places.

What was measured:
Nezara viridula = assay: Foliar spray of cotton plants, infestation with Nezara viridula, mortality after three days (Example-1); assay type: in vivo; details: for mortality at 100 ppm: Nezara viridula, foliar, 72 h
Experimental: Cotton plants were grown to growth stage BBCH 12. The cotton plants were then sprayed with 300 l/ha of aqueous compositions comprising either no component of the ginkgo tree, 300 ppm of ginkgolide A, or 100 ppm of bilobalide. The plants were then infested with five insects (either adult, or 4th instar nymphs) of Nezara viridula insects. Insects were contained on the plant using mesh organza bags. Three replicate measurement on different plants were made for each measurement. Three days after infestation, the number of live and dead insects was determined. The mean mortality values were gathered in Table D.

Euschistus heros = assay: Spray of cotton seedlings, infestation with adults of Euschistus heros, alive insects and Abbott relative efficacy (Example-2, Example-3); assay type: in vivo; details: for Relative Efficacy 1DAI / Relative Efficacy 3DAI: Abbott's formula; for No of alive insects 1DAI / No of alive insects 3DAI: ten adults per plant, mean of 4 replicates
Experimental: Relative efficacy (E) values were calculated according to Abbot's formula
C is the number of alive insects in untreated controls, and G is the number of alive insects in plants treated with components of the ginkgo tree.
Fibermax™ LibertyLink™ cotton, and Bollgard II™ cotton seedlings were sprayed with 2 ml of compositions comprising either no component of the ginkgo tree, or bilobalide at a concentration of 150 ppm, or 100 ppm. Plants were allowed to dry and subsequently infested with ten adults of Euschistus heros. Four replicate measurement on different plants were made for each measurement. One day after infestation (1 DAI), and three days after infestation (3 DAI) the number of live and dead insects was determined. The mean number of alive insects, as well as the relative efficacy values (E) according to Abbott's formula were gathered in Table E, wherein the number of alive insects in untreated controls (C) was the value of the same plant without the application of bilobalide.
The experiment as described in Example-2 was repeated with ginkgolide A in a concentration of 250 ppm. […] The mean number of alive insects, as well as the relative efficacy values (E) according to Abbott's formula were gathered in Table F, wherein the number of alive insects in untreated controls (C) was the value of the same plant without the application of ginkgolide A.

[1] = Fibermax LibertyLink cotton, 100 ppm
[2] = Fibermax LibertyLink cotton, 150 ppm
[3] = Fibermax LibertyLink cotton, 250 ppm

## CC(C)(C)[C@]1(O)C[C@@H]2OC(=O)C[C@@]23C(=O)O[C@@H]2OC(=O)[C@H](O)[C@]213 [Bilobalide, (3aS,5aR,8aS,9R,10aR)-9-tert-butyl-8,9-dihydroxydihydro-9H-furo[2,3-b]furo[3′,2′; 2,3]cyclopenta[1,2-c]furan-2,4,7(3H,8H)-trione]
Nezara viridula; read-out: Mortality of 4th instar nymphs
  mortality at 100 ppm: 92.9%
Nezara viridula; read-out: Mortality of Adults
  mortality at 100 ppm: 53.3%
Euschistus heros; Bollgard II cotton, 100 ppm
  Relative Efficacy 1DAI: 78%
  No of alive insects 1DAI: 2.3
  Relative Efficacy 3DAI: 98%
  No of alive insects 3DAI: 0.3
Euschistus heros; Bollgard II cotton, 150 ppm
  Relative Efficacy 1DAI: 75%
  No of alive insects 1DAI: 2.5
  Relative Efficacy 3DAI: 100%
  No of alive insects 3DAI: 0.0
Euschistus heros; [1]
  Relative Efficacy 1DAI: 68%
  No of alive insects 1DAI: 3.3
  Relative Efficacy 3DAI: 98%
  No of alive insects 3DAI: 0.3
Euschistus heros; [2]
  Relative Efficacy 1DAI: 70%
  No of alive insects 1DAI: 3.0
  Relative Efficacy 3DAI: 100%
  No of alive insects 3DAI: 0.0

## C[C@@H]1C(=O)O[C@H]2C[C@@]34[C@H]5C[C@@H](C(C)(C)C)[C@]36[C@@H](OC(=O)[C@@H]6O)O[C@@]4(C(=O)O5)[C@]21O [Ginkgolide A]
Nezara viridula; N. viridula 4th instar nymphs on cotton (BBCH 12), 300 ppm, 300 l/ha spray, three days after infestation, mean of 3 replicates
  Mortality of 4th instar nymphs: 78.6%
Nezara viridula; N. viridula adults on cotton (BBCH 12), 300 ppm, 300 l/ha spray, three days after infestation, mean of 3 replicates
  Mortality of Adults: 93.3%
Euschistus heros; Bollgard II cotton, 250 ppm
  Relative Efficacy 1DAI: 5%
  No of alive insects 1DAI: 9.5
  Relative Efficacy 3DAI: 33%
  No of alive insects 3DAI: 6.8
Euschistus heros; [3]
  Relative Efficacy 1DAI: 0%
  No of alive insects 1DAI: 10.0
  Relative Efficacy 3DAI: 5%
  No of alive insects 3DAI: 9.5
